Laboratory results taken from patent publication US9663511B2, “Sphingosine 1-phosphate receptor antagonists” (ARROYO BIOSCIENCES, LLC, priority 2012, dated 2017).
Several values for one entry are separate records, joined by “and”; a condition that tells them apart may be missing. Equal entries are not always repeated. Where two headings read alike, the source gives them in different places.

Legend:
[1] = In vitro plasma protein binding; assay type: in vitro ADME, mouse; settings: mouse plasma, test concentration 5 nM
[2] = Blood concentrations and pharmacokinetics after 1 mg/kg i.v. in mice; assay type: in vivo, mouse; settings: for pharmacokinetics / blood levels following intravenous injection in mice (in words): comparison between compounds
Description: 1 mg/kg of the compound was injected by IV and blood was withdrawn at the times in table 1. The amount of starting compound was quantified by a standard curve using MS/MS determinations.

[3] = Microsomal intrinsic clearance; settings: mouse, liver microsomes, mouse microsomes, test conc. 1 μM
S1P2 receptor = S1P2 receptor (Homo sapiens (Human), UniProt O95136); experiment: Antagonist assay (FLIPR TETRA, inhibition of reference agonist EC80) on S1P2; assay type: cell-based; settings: tested as the citrate salt
Description: (§1) Antagonist percentage inhibition determinations were obtained by assaying sample compounds and referencing the control (EC80) wells for each profiled (GPCR) which evaluated binding to S1P2 and S1P5 receptors. The samples were run using a single addition assay protocol. The protocol design is as follows.
(§2) Unless specified otherwise, the sample compounds were diluted in 100% anhydrous DMSO including all dilutions. The compounds were tested as the citrate salt (1 equivalent per molecule). If the sample compound is provided in a different solvent all master stock dilutions are performed in the specified solvent. All control wells contained identical solvent final concentrations as the sample compound wells.
(§3) The sample compounds were transferred from a master stock solution into a daughter plate that was used in the assay. Each sample compound was diluted into an assay buffer (1×HBSS with 20 mM HEPES, 2.5 mM Probenecid, and 0.4% Free Fatty Acid BSA) at an appropriate concentration to obtain final specified concentrations.
(§4) Using the EC80 values that were determined real-time, stimulated all pre-incubated sample compounds and reference antagonists (if applicable) were compared with the EC80 values of reference agonist. These were read for 180 seconds using the FLIPR^TETRA (This assay added reference agonist to respective wells-then fluorescences measurements were collected to calculate IC50 values). All plates were subjected to appropriate baseline corrections. Once baseline corrections were processed, maximum fluorescence values were exported and data manipulated to calculate percentage activation, percentage inhibition and Z′.

S1P5 receptor = S1P5 receptor (Homo sapiens (Human), UniProt Q9H228); experiment: Antagonist assay (FLIPR TETRA, inhibition of reference agonist EC80) on S1P5; assay type: cell-based; settings: tested as the citrate salt
Description: as §1, §2, §3, §4

Chain of S1P2 receptor (O95136 whole entry): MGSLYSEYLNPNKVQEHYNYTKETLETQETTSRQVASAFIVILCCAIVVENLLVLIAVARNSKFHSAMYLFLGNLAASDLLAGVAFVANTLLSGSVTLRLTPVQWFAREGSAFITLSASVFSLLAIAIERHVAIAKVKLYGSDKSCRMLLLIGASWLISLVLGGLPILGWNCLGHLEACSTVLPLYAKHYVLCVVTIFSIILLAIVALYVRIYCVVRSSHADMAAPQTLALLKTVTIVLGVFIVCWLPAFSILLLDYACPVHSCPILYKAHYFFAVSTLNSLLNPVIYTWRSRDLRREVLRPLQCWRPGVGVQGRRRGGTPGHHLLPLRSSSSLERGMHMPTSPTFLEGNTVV
Chain of S1P5 receptor (Q9H228 whole entry): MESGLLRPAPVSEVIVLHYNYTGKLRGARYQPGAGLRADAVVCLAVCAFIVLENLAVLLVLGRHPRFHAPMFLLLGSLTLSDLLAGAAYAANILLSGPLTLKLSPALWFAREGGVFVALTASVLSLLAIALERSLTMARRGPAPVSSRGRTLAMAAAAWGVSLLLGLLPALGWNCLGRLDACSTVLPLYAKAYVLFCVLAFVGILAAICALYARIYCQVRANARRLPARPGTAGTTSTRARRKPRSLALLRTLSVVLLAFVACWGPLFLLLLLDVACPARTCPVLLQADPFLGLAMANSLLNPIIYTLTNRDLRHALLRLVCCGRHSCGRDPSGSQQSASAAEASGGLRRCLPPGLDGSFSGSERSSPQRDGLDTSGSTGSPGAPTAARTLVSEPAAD

mean fraction bound (%) [1]: 99.9% | AUC0-inf ([2]; mouse blood, individual mice): 92.4 ng·h/mL and 192 ng·h/mL | AUC0-inf Extrapolated ([2]; mouse blood, individual mice): 19.3% and 63.8% | AUC0-tlast ([2]; mouse blood, individual mice): 74.6 ng·h/mL and 69.5 ng·h/mL | AUMC0-inf ([2]; mouse blood, individual mice): 604 h^2*ng/mL and 9010 h^2*ng/mL | AUMC0-inf Extrapolated ([2]; mouse blood, individual mice): 74.1% and 98.2% | C0 ([2]; mouse blood, individual mice): 262 ng/mL and 251 ng/mL | CL ([2]; mouse blood, individual mice): 180 mL/min/kg and 86.7 mL/min/kg | MRT0-inf ([2]; mouse blood, individual mice): 6.53 h and 46.9 h | MRT0-tlast ([2]; mouse blood, individual mice): 0.236 h and 2.10 h and 2.39 h | Terminal half-life ([2]; mouse blood, individual mice): 9.08 h and 41.7 h | Vss ([2]; mouse blood, individual mice): 70.7 L/kg and 244 L/kg | AUC0-inf Extrapolated, Mean S.D. ([2]; mouse blood, mean): 41.5 (n = 2) % | AUMC0-inf Extrapolated, Mean S.D. ([2]; mouse blood, mean): 86.1 (n = 2) % | AUMC0-inf, Mean S.D. ([2]; mouse blood, mean): 4810 (n = 2) h^2*ng/mL | AUMC0-tlast, Mean S.D. ([2]; mouse blood, mean): 112 ± 86.0 h^2*ng/mL | C0, Mean S.D. ([2]; mouse blood, mean): 295 ± 66.2 ng/mL | Blood Concentrations ([2]; mouse, 5 min, individual mice, LLOQ = 1 ng/mL): 152 ng/mL and 143 ng/mL | Blood Concentrations ([2]; mouse, 0.25 h, individual mice, LLOQ = 1 ng/mL): 51.2 ng/mL and 46.3 ng/mL | Blood Concentrations ([2]; mouse, 0.5 h, individual mice, LLOQ = 1 ng/mL): 22.8 ng/mL and 17.1 ng/mL | Blood Concentrations ([2]; mouse, 1 h, individual mice, LLOQ = 1 ng/mL): 7.90 ng/mL and 6.44 ng/mL | Blood Concentrations ([2]; mouse, 2 h, individual mice, LLOQ = 1 ng/mL): 1.13 ng/mL and 3.12 ng/mL and 2.96 ng/mL | Blood Concentrations ([2]; mouse, 4 h, individual mice, LLOQ = 1 ng/mL): BLQ and 1.98 ng/mL | Blood Concentrations ([2]; mouse, 6 h, individual mice, LLOQ = 1 ng/mL): BLQ and 2.25 ng/mL | Blood Concentrations ([2]; mouse, 12 h, individual mice, LLOQ = 1 ng/mL): BLQ and 2.04 ng/mL | pharmacokinetics / blood levels following intravenous injection in mice (in words) ([2]; mouse): substantially improved pharmacokinetics | pharmacokinetics / blood levels following intravenous injection in mice (in words) ([2]; mouse, listed as compound 1): highest drug blood levels over time | AUC(0-t) ([2]; mouse, whole blood, iv, 1 mg/kg, mouse blood, individual mice, read-out: AUC0-tlast): 53.9 ng·h/mL | C0 ([2]; mouse, whole blood, iv, 1 mg/kg, mouse blood, individual mice, read-out: C0): 371 ng/mL | AUC0-inf ([2]; mouse, whole blood, iv, 1 mg/kg, mouse blood, mean, read-out: AUC0-inf, Mean S.D.): 142 ng·h/mL | AUC(0-t) ([2]; mouse, whole blood, iv, 1 mg/kg, mouse blood, mean, read-out: AUC0-tlast, Mean S.D.): 66 ± 10.8 ng·h/mL | clearance ([2]; mouse, whole blood, iv, 1 mg/kg, mouse blood, mean, read-out: CL, Mean S.D. (converted)): 134 mL/min/kg | MRT inf ([2]; mouse, whole blood, iv, 1 mg/kg, mouse blood, mean, read-out: MRT0-inf, Mean S.D.): 26.7 h | MRT last ([2]; mouse, whole blood, iv, 1 mg/kg, mouse blood, mean, read-out: MRT0-tlast, Mean S.D.): 1.58 h | half-life ([2]; mouse, whole blood, iv, 1 mg/kg, mouse blood, mean, read-out: Terminal half-life, Mean S.D. (converted)): 25.4 h | Vd ([2]; mouse, whole blood, iv, 1 mg/kg, mouse blood, mean, read-out: Vss, Mean S.D.): 157 L/kg | concentration at 5 min ([2]; mouse, whole blood, iv, 1 mg/kg, mouse, 5 min, individual mice, LLOQ = 1 ng/mL, read-out: Blood Concentrations): 188 ng/mL | concentration at 5 min ([2]; mouse, whole blood, iv, 1 mg/kg, mouse, 5 min, mean of 3 mice, read-out: Blood Concentrations, Mean S.D.): 161 ± 23.8 ng/mL | concentration at 0.25 h ([2]; mouse, whole blood, iv, 1 mg/kg, mouse, 0.25 h, individual mice, LLOQ = 1 ng/mL, read-out: Blood Concentrations): 48.3 ng/mL | concentration at 0.25 h ([2]; mouse, whole blood, iv, 1 mg/kg, mouse, 0.25 h, mean of 3 mice, read-out: Blood Concentrations, Mean S.D.): 48.6 ± 2.46 ng/mL | concentration at 0.5 h ([2]; mouse, whole blood, iv, 1 mg/kg, mouse, 0.5 h, individual mice, LLOQ = 1 ng/mL, read-out: Blood Concentrations): 14.9 ng/mL | concentration at 0.5 h ([2]; mouse, whole blood, iv, 1 mg/kg, mouse, 0.5 h, mean of 3 mice, read-out: Blood Concentrations, Mean S.D.): 18.3 ± 4.08 ng/mL | concentration at 1 h ([2]; mouse, whole blood, iv, 1 mg/kg, mouse, 1 h, individual mice, LLOQ = 1 ng/mL, read-out: Blood Concentrations): 5.11 ng/mL | concentration at 1 h ([2]; mouse, whole blood, iv, 1 mg/kg, mouse, 1 h, mean of 3 mice, read-out: Blood Concentrations, Mean S.D.): 6.48 ± 1.4 ng/mL | concentration at 2 h ([2]; mouse, whole blood, iv, 1 mg/kg, mouse, 2 h, mean of 3 mice, read-out: Blood Concentrations, Mean S.D.): 2.4 ± 1.11 ng/mL | concentration at 4 h ([2]; mouse, whole blood, iv, 1 mg/kg, mouse, 4 h, individual mice, LLOQ = 1 ng/mL, read-out: Blood Concentrations): 2.22 ng/mL | concentration at 4 h ([2]; mouse, whole blood, iv, 1 mg/kg, mouse, 4 h, mean (n = 2 for Cmpd-1), read-out: Blood Concentrations, Mean S.D.): 2.1 ng/mL | concentration at 6 h ([2]; mouse, whole blood, iv, 1 mg/kg, mouse, 6 h, individual mice, LLOQ = 1 ng/mL, read-out: Blood Concentrations): 2.55 ng/mL | concentration at 6 h ([2]; mouse, whole blood, iv, 1 mg/kg, mouse, 6 h, mean (n = 2 for Cmpd-1), read-out: Blood Concentrations, Mean S.D.): 2.4 ng/mL | concentration at 12 h ([2]; mouse, whole blood, iv, 1 mg/kg, mouse, 12 h, individual mice, LLOQ = 1 ng/mL, read-out: Blood Concentrations): 1.36 ng/mL | concentration at 12 h ([2]; mouse, whole blood, iv, 1 mg/kg, mouse, 12 h, mean (n = 2 for Cmpd-1), read-out: Blood Concentrations, Mean S.D.): 1.7 ng/mL | microsomal CLint at 1 μM ([3]; NADPH-dependent Clint (microsomal intrinsic clearance)): 1170 µL/min/mg | half-life at 1 μM ([3]; NADPH-dependent T1/2 (half-life)): 0.0333 h | microsomal CLint at 1 μM ([3]; NADPH-free Clint (microsomal intrinsic clearance)): 48 µL/min/mg | half-life at 1 μM ([3]; NADPH-free T1/2 (half-life)): 0.8 h | IC50 (S1P2 receptor): 1.2 nM | IC50 (S1P5 receptor): 2.2 nM
SMILES: C=CCn1nc(C)c2c(C(C)C)cc(NNC(=O)Nc3cc(Cl)nc(Cl)c3)nc21 [Compound 1]
AUMC0-tlast ([2]; mouse blood, individual mice): 12.7 h^2*ng/mL and 157 h^2*ng/mL and 166 h^2*ng/mL
